In ChEMBL document CHEMBL1130370, “Novel hydroxyphosphonate inhibitors of CD-45 tyrosine phosphatase” (Bioorg Med Chem Lett, 1997) one finds IC50 and inhibition data, which are given here for 26 molecules.

pIC50: −log10 of the molar value.

Molecular target in one experiment: not listed separately
The experiment can be described thus: Compound was tested for its inhibitory activity against Osteoclastic acid phosphatase. Also noted: species or system Homo sapiens.
For `O=C(c1ccccc1)C(C(=O)c1ccccc1)(c1cccc2ccccc12)P(=O)(O)O`, the negative-log IC50 (pIC50) is 5.85.

The target in the next experiment is T1, Prostatic acid phosphatase (Homo sapiens, UniProt P15309).
T1 sequence (P15309 whole entry): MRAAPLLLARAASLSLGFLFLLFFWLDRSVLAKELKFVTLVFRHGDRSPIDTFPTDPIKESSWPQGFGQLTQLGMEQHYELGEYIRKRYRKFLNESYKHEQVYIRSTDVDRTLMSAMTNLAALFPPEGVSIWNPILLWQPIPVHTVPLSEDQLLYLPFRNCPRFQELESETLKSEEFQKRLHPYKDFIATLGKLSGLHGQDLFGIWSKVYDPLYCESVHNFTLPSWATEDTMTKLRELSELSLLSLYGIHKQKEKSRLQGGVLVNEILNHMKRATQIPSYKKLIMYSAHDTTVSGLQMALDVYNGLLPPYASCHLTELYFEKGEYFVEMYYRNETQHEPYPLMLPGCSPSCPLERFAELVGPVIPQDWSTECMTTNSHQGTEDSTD
The experiment can be described thus: Compound was tested for its inhibitory activity against human prostatic acid phosphatase.
In the case of `O=P(O)(O)C(NCc1ccccc1)c1cccc2ccccc12` (stereo unspecified), the pIC50 was 8.07.

Another experiment concerns the target T2, Receptor-type tyrosine-protein phosphatase C (Homo sapiens, UniProt P08575).
T2 sequence (P08575 whole entry): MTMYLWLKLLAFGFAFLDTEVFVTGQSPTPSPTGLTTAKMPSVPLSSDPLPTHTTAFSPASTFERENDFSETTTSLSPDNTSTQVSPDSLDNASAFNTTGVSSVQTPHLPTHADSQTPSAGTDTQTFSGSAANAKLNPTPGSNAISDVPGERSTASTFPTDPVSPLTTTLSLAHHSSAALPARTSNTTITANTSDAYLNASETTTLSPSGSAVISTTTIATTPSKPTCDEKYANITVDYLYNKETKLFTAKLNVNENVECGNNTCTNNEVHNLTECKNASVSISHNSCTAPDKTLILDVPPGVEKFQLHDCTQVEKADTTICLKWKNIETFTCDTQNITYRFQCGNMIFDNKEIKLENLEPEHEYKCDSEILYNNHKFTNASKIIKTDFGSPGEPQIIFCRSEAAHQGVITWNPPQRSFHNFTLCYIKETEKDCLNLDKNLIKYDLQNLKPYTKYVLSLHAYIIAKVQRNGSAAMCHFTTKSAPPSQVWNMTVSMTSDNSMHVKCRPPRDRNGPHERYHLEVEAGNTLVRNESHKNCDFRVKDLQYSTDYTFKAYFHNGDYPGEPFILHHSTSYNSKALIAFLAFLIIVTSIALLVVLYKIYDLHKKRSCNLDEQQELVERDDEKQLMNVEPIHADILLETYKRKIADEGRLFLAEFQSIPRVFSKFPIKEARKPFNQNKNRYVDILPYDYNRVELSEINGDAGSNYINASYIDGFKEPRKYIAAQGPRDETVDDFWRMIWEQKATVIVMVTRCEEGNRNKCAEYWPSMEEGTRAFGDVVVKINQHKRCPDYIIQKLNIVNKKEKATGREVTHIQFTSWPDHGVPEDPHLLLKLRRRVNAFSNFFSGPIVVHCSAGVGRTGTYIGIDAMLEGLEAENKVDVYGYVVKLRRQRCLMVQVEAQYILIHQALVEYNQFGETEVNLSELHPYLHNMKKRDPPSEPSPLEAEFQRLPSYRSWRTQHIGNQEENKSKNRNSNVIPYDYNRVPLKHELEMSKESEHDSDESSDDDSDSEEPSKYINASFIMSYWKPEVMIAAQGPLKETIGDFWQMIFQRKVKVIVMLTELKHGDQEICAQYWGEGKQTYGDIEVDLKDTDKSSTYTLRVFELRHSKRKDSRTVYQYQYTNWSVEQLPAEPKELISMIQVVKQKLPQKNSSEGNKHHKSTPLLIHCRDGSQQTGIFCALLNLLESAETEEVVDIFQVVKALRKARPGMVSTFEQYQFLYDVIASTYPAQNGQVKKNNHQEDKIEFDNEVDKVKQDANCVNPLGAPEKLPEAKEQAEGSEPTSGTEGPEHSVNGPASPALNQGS
The experiment can be described thus: Tested for inhibitory activity against CD45 protein-tyrosine phosphatase of Jurkat cell membrane at 1000 uM. Type of experiment: cell-based.
On to `O=[N+]([O-])c1cccc(C(O)P(=O)(O)O)c1` (stereo unspecified), for which the pIC50 was 5.00.

The molecule `CC(O)(c1cccc([N+](=O)[O-])c1)P(=O)(O)O` (stereo unspecified) had a pIC50 of 4.24.

On to `O=[N+]([O-])c1ccc(C(O)P(=O)(O)O)cc1` (stereo unspecified), for which the pIC50 was 4.55.

The target of another experiment is T3, Receptor-type tyrosine-protein phosphatase C (Homo sapiens) (UniProt P08575).
T3 sequence (whole entry): T2 sequence (P08575 whole entry)
The experiment in a line: Compound was tested for its inhibitory activity against CD45 protein-tyrosine phosphatase of Jurkat cell membrane at 250 uM concentration. Type of experiment: cell-based.
Molecule `O=P(O)(O)C(NCc1ccccc1)c1cccc2ccccc12` (stereo unspecified) displayed an inhibition of 23%.

The next experiment addresses T3, Receptor-type tyrosine-protein phosphatase C (Homo sapiens). The experiment in a line: Compound was tested for its inhibitory activity against CD45 protein-tyrosine phosphatase of Jurkat cell membrane at 1000 uM concentration. The experiment is classed as cell-based.
Molecule `O=[N+]([O-])c1cc(C(O)P(=O)(O)O)ccc1O` (stereo unspecified) returned an inhibition of 8%.

`O=P(O)(O)C(O)c1ccccc1` (stereo unspecified) came in with an inhibition of 39%.

As for `O=[N+]([O-])c1cccc(C(O)P(=O)(O)O)c1` (stereo unspecified), the inhibition was found to be 93%.

`N#Cc1cccc(C(O)P(=O)(O)O)c1` (stereo unspecified): the inhibition was found to be 49%.

In turn, `O=P(O)(O)C(O)c1cccc2ccccc12` (stereo unspecified) displayed an inhibition of 53%.

As to `CC(O)(c1cccc([N+](=O)[O-])c1)P(=O)(O)O` (stereo unspecified), the inhibition is 97%.

In turn, `O=[N+]([O-])c1ccc(C(O)P(=O)(O)O)cc1` (stereo unspecified) showed an inhibition of 98%.

Another experiment has the same target. The experiment in a line: Inhibition of CD45 protein-tyrosine phosphatase of Jurkat cell membrane at 500 uM. The experiment is classed as cell-based.
In turn, `Nc1cccc(C(O)P(=O)(O)O)c1` (stereo unspecified) gave an inhibition of 23%.

In the case of `Cc1cccc(C(O)P(=O)(O)O)c1` (stereo unspecified), the inhibition was determined as 27%.

`O=[N+]([O-])c1cc(C(O)P(=O)(O)O)cs1` (stereo unspecified) had an inhibition of 93%.

`O=P(O)(O)C(O)c1ccnc2ccccc12` (stereo unspecified) displayed an inhibition of 58%.

Take `O=[N+]([O-])c1ccc(SC2CCCCC2)c(C(O)P(=O)(O)O)c1` (stereo unspecified): the inhibition is 99%.

In the case of `O=P(O)(O)C(O)c1ccccn1` (stereo unspecified), the inhibition amounted to 2%.

In the case of `CS(=O)(=O)c1ccc(C(O)P(=O)(O)O)cc1` (stereo unspecified), the inhibition amounted to 41%.

The molecule `O=C(c1ccccc1)C(C(=O)c1ccccc1)(c1cccc2ccccc12)P(=O)(O)O` returned an inhibition of 8%.

Take `COc1ccc(C(O)P(=O)(O)O)cc1` (stereo unspecified): the inhibition stood at 42%.

On to `O=[N+]([O-])c1ccc(O)c(C(O)P(=O)(O)O)c1` (stereo unspecified), for which the inhibition was determined as 75%.

In turn, `O=P(O)(O)C(O)c1ccc2ccccc2c1` (stereo unspecified) came in with an inhibition of 59%.

As for `O=[N+]([O-])c1ccc(Cl)c(C(O)P(=O)(O)O)c1` (stereo unspecified), the inhibition was 81%.

The molecule `Cc1cccc(C(c2ccccc2)P(=O)(O)O)c1` (stereo unspecified) returned an inhibition of 8%.

Molecule `O=P(O)(O)C(O)c1cccnc1` (stereo unspecified) returned an inhibition of 13%.

Turning to `O=P(O)(O)C(O)c1cccc(Cl)c1` (stereo unspecified), the inhibition stood at 49%.

On to `O=[N+]([O-])c1cccc(CP(=O)(O)O)c1`, for which the inhibition worked out at 17%.

In turn, `O=P(O)(O)C(O)c1ccncc1` (stereo unspecified) registered an inhibition of 0%.

In the case of `O=P(O)(O)C(O)c1cccc(O)c1` (stereo unspecified), the inhibition worked out at 0%.
